Ten compounds from ChEMBL document CHEMBL3853304, “Synthesis and biological screening for cytotoxic activity of N-substituted indolines and morpholines” (Eur J Med Chem, 2016) can be followed below.

Active and inactive are the calls of the source. The calls are words filed in the database; no cut-off is given here.

A short description of data set [1]: (§1) Cytotoxicity against human U2OS cells assessed as cell death at 100 uM after 24 hrs by trypan blue exclusion assay. In kind it is functional.
The test system of data set [2] is U2OS. The experiment in a line: Induction of apoptosis in human U2OS cells at IC50 after 24 hrs by Alexa fluor-Annexin V/DAPI staining-based epifluorescence microscopic analysis. The class given is functional.
The test system of data set [3] is U2OS. Kind of data set: Inhibition of cell migration in human U2OS cells at IC50 after 2 to 10 hrs by scratch migration assay. The class given is functional, cell-based.
The test system of data set [4] is U2OS. The experiment in a line: Induction of apoptosis in human U2OS cells assessed as increase in intracellular mitochondrial Ca2+ levels at IC50 by ratiometric pericam-mt based fluorescence microscopic analysis. The class given is functional, cell-based.
Data set [5] concerns U2OS. Kind of data set: Induction of apoptosis in human U2OS cells assessed as necrotic cells at IC50 after 24 hrs by propidium iodide based epifluorescence microscopic analysis (reference value: 3 %). The class given is functional.
Data set [6] deals with U2OS. The experiment in a line: Inhibition of cell migration in human U2OS cells assessed as detached adherent cells at IC50 measured after 10 hrs by light microscopic analysis. In kind it is functional, cell-based.
Data set [7] has as its system U2OS. Kind of data set: Induction of apoptosis in human U2OS cells assessed as necrotic cells at IC50 after 48 hrs by propidium iodide based epifluorescence microscopic analysis (reference value: 3 %). The class given is functional.
A short description of data set [8]: Induction of apoptosis in HEK293 cells assessed as increase in intracellular mitochondrial Ca2+ levels at IC50 by ratiometric pericam-mt based fluorescence microscopic analysis. In kind it is cell-based. Conditions: human.
Data set [9] concerns U2OS. Kind of data set: Induction of apoptosis in human U2OS cells assessed as apoptotic cells at IC50 after 48 hrs by propidium iodide based epifluorescence microscopic analysis (reference value: 2 %). The class given is functional.
Data set [10] concerns U2OS. Kind of data set: Inhibition of cell migration in human U2OS cells assessed as disturbed monolayer at IC50 measured after 10 hrs by light microscopic analysis. In kind it is functional, cell-based.
The subject of data set [11] is U2OS. Kind of data set: Induction of apoptosis in human U2OS cells assessed as apoptotic cells at IC50 after 24 hrs by propidium iodide based epifluorescence microscopic analysis (reference value: 2 %). The class given is functional.
For data set [12], the system named is U2OS. Kind of data set: (§2) Cytotoxicity against human U2OS cells assessed as reduction in cell viability after 24 hrs by trypan blue exclusion assay. In kind it is functional, cell-based.
Data set [13] can be described thus: as §2. In kind it is functional, cell-based.
The subject of data set [14] is U2OS. The experiment in a line: Inhibition of cell migration in human U2OS cells at IC50 measured after 10 hrs by scratch migration assay. The class given is functional.
Data set [15] deals with U2OS. Kind of data set: Inhibition of cell migration in human U2OS cells at IC50 measured after 2 hrs by scratch migration assay. The class given is functional.
The nature of data set [16]: Induction of apoptosis in HEK293 cells at IC50 after 24 hrs by Alexa fluor-Annexin V/DAPI staining-based epifluorescence microscopic analysis. The following applies: human, hek293, 24 h. In kind it is cell-based.
The subject of data set [17] is U2OS. The data set is described as §1. The class given is functional.

As to `C(=C\C(c1ccccn1)N1CCOCC1)/c1ccccc1` (stereo unspecified), the Activity in [1] is 20%.

`Oc1ccccc1C(c1ccc(Cl)cc1)N1CCOCC1` (stereo unspecified): in [1], the Activity was found to be 20%.

As a reminder, the IC50 is the concentration at which inhibition is half-maximal. For `Cc1ccc(C(c2cc([N+](=O)[O-])ccc2O)N2CCc3ccccc32)cc1` (stereo unspecified), the Activity in data set [2] is 43%; in data set [5] it was 12%; in [7] it was 15%; in data set [8] it was “Toxic”; in data set [9], 23%; in data set [11] it was 17%. Moreover, the Activity was over 90% in data set [1], “Dose-dependent effect” in data set [12] and 30% in data set [16]. Also, the inhibition entry in data set [3], in data set [6] and in data set [10] was “Active” each time. Further, the outcome in [4] was Active. Besides, the IC50 in [13] was 74 µM. Also, the “inhibition (INH)” value in data set [14] is reported as 32%; in data set [15] it was 7%.

`Oc1ccccc1C(/C=C/c1ccccc1)N1CCOCC1` (stereo unspecified): in data set [1], the Activity stood at 20%.

For `C=Cc1ccc(C(c2ccccc2O)N2CCOCC2)cc1` (stereo unspecified), in [1], the Activity was determined as 20%.

In the case of `Cc1ccc(C(c2ccccc2O)N2CCc3ccccc32)cc1` (stereo unspecified), in data set [1], the Activity was 20%.

`COc1ccc(C(c2ccccc2O)N2CCOCC2)cc1` (stereo unspecified): in data set [1], the Activity amounted to 20%.

In the case of SODIUM ORTHOVANAD, the Activity in data set [17] amounted to 30%.

In the case of `Oc1ccccc1C(c1ccccc1)N1CCc2ccccc21` (stereo unspecified), the Activity in [1] is listed as over 90%. Further, in data set [12], the outcome was Active.

With `Oc1ccccc1C(c1ccccc1)N1CCOCC1` (stereo unspecified), the Activity in [1] was 20%.
